Publication PMC4890880 (ACS infectious diseases, 2016)
Like-named read-outs stand apart in the source and are kept apart here.

Assays:
HepG2-A16-CD81EGFP cells = assay: cells; details: Homo sapiens; for IC50: HepG2, read-out: Tox IC50; for inhibition at 50 µM: HepG2, read-out: Tox max inhibition (%) @ 50 uM
[1] = test system: Plasmodium berghei (Pb-Luc) exoerythrocytic-stage parasites; assay: microbe, parasite or virus in culture
[2] = HepG2, read-out: HepG2 Tox% @ 50 uM rep1
[3] = HepG2, read-out: HepG2 Tox% @ 50 uM rep2
[4] = read-out: Inhibition% @ 50 uM rep1
[5] = read-out: Inhibition% @ 50 uM rep2
[6] = read-out: PbLuc IC50, dose response, 1/3 dilutions, max conc. 10 or 50 uM, unit inferred
[7] = read-out: PbLuc max inhibition (%) @ 50 uM

Structure (SMILES)	cytotoxicity at 50 µM (HepG2-A16-CD81EGFP cells; [2]) [%]	cytotoxicity at 50 µM (HepG2-A16-CD81EGFP cells; [3]) [%]	inhibition at 50 µM [1, 4] [%]	inhibition at 50 µM [1, 5] [%]	IC50 (HepG2-A16-CD81EGFP cells) [µM]	inhibition at 50 µM (HepG2-A16-CD81EGFP cells) [%]	IC50 [1, 6] [µM]	inhibition at 50 µM [1, 7] [%]	IC50 ([1]; read-out: PbLuc IC50, dose response, unit inferred) [µM]
CC(C)(C)c1ccc(O)c(CNC2CCCCC2)c1 [MMV665785]	97	99	99	102					
CC(NCc1ccccc1)c1cc(Cl)ccc1O (stereo not shown) [MMV665789]	72	89	103	100					
FC(F)(F)c1cccc(Nc2nc3ccccc3nc2Nc2cccc(C(F)(F)F)c2)c1 [MMV665794]	100		103	102	1.9	102	0.667	100	
CC(C)(C)CC(C)(C)NCC(O)COc1ccc2c(c1)CCC2 (stereo not shown) [MMV665817]	96	98	103	104					
CC1CC2=C(CC1CNCCCN(C)C)C(C)(C)CCC2 (stereo not shown) [MMV665830]	98		102	102					
O=C(Nc1ccc(Cl)c(Cl)c1)Nc1ccc(Cl)c(Cl)c1 [MMV665852]	100		103	104	4.86	101	0.669	100	
CCCCNc1nc(NC(C)(C)C)nc(NC(C)(C)C)n1 [MMV665864]	41		94	94	> 50	41	15.5	89	
Cc1cc(Nc2ccc(C)c(Cl)c2)n2nc(C(F)(F)F)nc2n1 [MMV665874]	93	95	102	102					
CC(C)(C)C(=O)Nc1ccc(C(=O)Nc2cccc(-c3nc4ccccc4[nH]3)c2)cc1 [MMV665879]	99	100	102	103					
CC(Oc1ccc(NC(=O)c2cccs2)cc1)C(=O)c1ccc(Cl)cc1 (stereo not shown) [MMV665886]	82		102	102					
c1ccc(-c2ccc(-c3nc4ccccc4[nH]3)cc2)cc1 [MMV665891]	39	30	103	105					
CC(=O)c1sc(NC(=O)Nc2ccc(C)cc2C)nc1C [MMV665894]	-26		3.42	-0.396					
O=C(Nc1ccc(CN2CCOCC2)cc1)c1ccc(-c2ccc(Br)cc2)o1 [MMV665901]	101	102	104	106					
Cc1ccc(-c2cc(C(=O)Nc3ccc(S(=O)(=O)N4CCCCC4)cc3)[nH]n2)c(O)c1 [MMV665906]	-10	-5	-12	30					
O=C(Nc1nc(-c2ccccn2)cs1)c1ccccc1Br [MMV665909]	79	86	98	98					
O=C1c2ccccc2-c2nnc(-c3ccc(Br)cc3)cc21 [MMV665934]	-9		1.49	29					

Structure (SMILES)	cytotoxicity at 50 µM (HepG2-A16-CD81EGFP cells; [2]) [%]	cytotoxicity at 50 µM (HepG2-A16-CD81EGFP cells; [3]) [%]	inhibition at 50 µM [1, 4] [%]	inhibition at 50 µM [1, 5] [%]	IC50 (HepG2-A16-CD81EGFP cells) [µM]	inhibition at 50 µM (HepG2-A16-CD81EGFP cells) [%]	IC50 [1, 6] [µM]	inhibition at 50 µM [1, 7] [%]	IC50 ([1]; read-out: PbLuc IC50, dose response, unit inferred) [µM]
Cc1ccc(S(=O)(=O)c2c(COC(=O)c3cccc(C)c3)c(-c3ccccc3)nn2C)cc1 [MMV665936]	27		102	103					
CN(C)c1ccc(C(O)(c2ccc(N(C)C)cc2)c2ccc(N(C)C)cc2)cc1 [MMV665941]	95	97	102	104	2.31	96	1.69	99	
Nc1ccc(-c2nc3cc(Cc4ccc5[nH]c(-c6ccc(N)cc6)nc5c4)ccc3[nH]2)cc1 [MMV665943]	99		103	104	14.6	95	10.1	97	
CC(C)=CCN1CCC(C(=O)Nc2ccc(-c3nc4ccccc4[nH]3)cc2)CC1 [MMV665946]	98	99	100	101					
O=C(Nc1ccc(F)c(Cl)c1)Nc1ccc(Cl)c(Cl)c1 [MMV665953]	97	98	103	102	5.02	99	0.85	101	
COc1cccc(C(=O)NC(c2ccc(C)cc2)c2cc(Cl)c3cccnc3c2O)c1 (stereo not shown) [MMV665969]	92		104	104	4.83	89	1.65	101	
Cc1ccc(OCCCCCCNCCO)c(C)c1 [MMV666020]	90		104	104					
Cc1ccc(-c2cc3c(nn2)-c2ccccc2C3=O)cc1 [MMV666021]	31	9	99	89					
c1ccc(Cn2c(N=Nc3c(Nc4ccccc4)ccc4ccccc34)nc3ccccc32)cc1 [MMV666023]	83	86	99	98	12	83	4.21	100	
COc1ccc(C(=O)NC(c2ccc(Cl)cc2Cl)c2cc(Cl)c3cccnc3c2O)cc1 (stereo not shown) [MMV666054]	98		100	102	12.7	88	1.58	101	
Cc1ccc2cc3c(N)c4c(C)ccc(C)c4nc3nc2c1 [MMV666079]	97		103	104	> 50	12		74	31.5
O=C(NC(c1ccccc1)c1ccc2cccnc2c1O)c1ccccc1 (stereo not shown) [MMV666080]	92	93	101	102	4	84	1.55	101	
C=C(C)CCC(C)N1CCC(N2CCC(C(=O)NCCc3ccccc3)CC2)CC1 (stereo not shown) [MMV666110]	91	97	101	99					
CC(=O)c1ccc(NC(=O)CSc2nc(-c3ccccc3Cl)ns2)cc1 [MMV666124]	96		104	104					
CC1=C(CC(=O)c2cccc([N+](=O)[O-])c2)C(=O)c2ccccc2C1=O [MMV666125]	100		103	104	21.1	99	4.26	99	
O=c1nc(C=Cc2ccc(Br)cc2)oc2ccccc12 [MMV666599]	70		102	103					
